These results are taken from patent US8889705B2, “Noscapine analogs and their use in treating cancers” (Emory University, priority 2007, dated 2014).

In assay [1] the test system is CEM cells. In words: In vitro cell proliferation MTS assay. The assay is classed as cell-based. The note with it: Homo sapiens, CCRF-CEM, 72 hours. Here is the method: (§1) Suspension cells (CEM, CEMNLB100 and CEM/VM-1-5) were cultured in RPMI-1640 media containing 10% FBS and then seeded into 96-well plates at a density of 5×10^3 cells per well and were treated with increasing gradient concentrations of 9-nitro-nos for 72 hours. Measurement of cell proliferation was performed colorimetrically by 3-(4,5-dimethylthiazol-2-yl)-5-(3-carboxymethoxyphenyl)-2-(4-sulphophenyl)-2H-tetrazolium, inner salt (MTS) assay, using the CellTiter96 AQueous One Solution Reagent (Promega, Madison, Wis.). Cells were exposed to MTS for 3 hours and absorbance was measured using a microplate reader (Molecular Devices, Sunnyvale, Calif.) at an optical density (OD) of 490 nm. The percentage of cell survival as a function of drug concentration for both the assays was then plotted to determine the IC50 value, which stands for the drug concentration needed to prevent cell proliferation by 50%.
as §1, with “(CEM)” for “(CEM, CEMNLB100 and CEM/VM-1-5)”, “were” for “were cultured in RPMI-1640 media containing 10% FBS and then”, “increasing” for “increasing gradient”, “all halogenated analogs” for “9-nitro-nos”

Assay [2] concerns 1A9/PTX22 cells. The assay can be described thus: TUNEL assay for apoptosis (flow cytometry). The assay is classed as cell-based, human. The note with it: 1A9/PTX22, 50 μM, 72 hours. Here is the method:
DNA strand breaks were identified by using the TUNEL assay as described. In brief, 1A9/PTX22 cells were incubated with 50 μM 9-nitro-nos for 72 hours. Cells were pelleted and washed with ice-cold PBS twice. Cells were then fixed in 1% paraformaldehyde, and apoptosis was detected using the APO-BrdU TUNEL Assay Kit from Molecular Probes (Eugene, Oreg.) according to the manufacturer's instructions. This assay was run on a flow cytometer equipped with a 488 nm argon laser as the light source. Propidium iodide (total cellular DNA) and Alexa-Fluor 488 (apoptotic cells) were the two dyes used. PI fluoresces at about 623 nm and Alexa-Fluor 488 at about 520 nm when excited at 488 nm. […] The gating display was the standard dual parameter DNA doublet discrimination display with the DNA area signal on the Y-axis and the DNA width signal on the X-axis. From this display, a gate was generated around the non-clumped cells and the second gated dual parameter display was generated with the DNA (linear red fluorescence) on the X-axis and the Alexa-Fluor 488 (log green fluorescence) on the Y-axis. Apoptotic cells were subsequently counted as those expressing high Alexa-Fluor 488 fluorescence. Confocal micrographs were also obtained for the TUNEL-stained cells using a 63× objective.

In assay [3] the test system is caspase-3 activity in CEM, CEM/VLB100, CEM/VM-1-5, 1A9 and 1A9/PTX22 cells. In words: Determination of caspase-3 activity (Z-DEVD-aminoluciferin). The note with it: 72 hours; 25 μM (CEM lines) or 50 μM (1A9 lines). The assay is classed as cell-based, human. Here is the method: Determination of caspase-3 activity: 10^6 cells were incubated with 25 μM 9-nitro-nos (CEM, CEMNLB100 and CEM/VM-1-5) or 50 μM 9-nitro-nos (1A9 and 1A9/PTX22) for 0, 24, 48 and 72 hours. Caspase-3 activity was then measured by the cleavage of the small synthetic substrate Z-DEVD-aminoluciferin (CaspaseGlo™ 3/7 Assay System Kit, Promega, Madison, Wis.) that becomes luminogenic upon cleavage. The luminescent signal, which is directly proportional to the amount of caspase-3 activity, was measured in a luminescence plate reader.

In the case of `COc1ccc2c(c1OC)C(=O)O[C@@H]2[C@H]1c2c(c([N+](=O)[O-])c3c(c2OC)OCO3)CCN1C` [9-nitro-nos, (S)-6,7-dimethoxy-3-((R)-4-methoxy-6-methyl-9-nitro-5,6,7,8-tetrahydro-[1,3]dioxolo[4,5-g]isoquinolin-5-yl)isobenzofuran-1(3H)-one], half-maximal inhibition in assay [1] (IC50) was put at 10 µM. Further, the TUNEL-positive cells in assay [2] stood at 55.9%. In assay [3], the “activation of caspase-3” value is on record as 10-20 fold.

Usually IC50 stands for the point on the concentration scale where inhibition reaches its midpoint.
